Test results as given in US20240166639A1, “POTENT AND SELECTIVE COMPOUNDS AS SEROTONIN 1B RECEPTOR MODULATORS” (LEUKOS BIOTECH, S.L., priority 2020, published 2024).
Counter-ions that a name gives are not always drawn.

Key:
human 5-HT1B receptor = human 5-HT1B receptor (Homo sapiens (Human), UniProt P28222); assay: Competition binding in human 5-HT1B receptor; conditions: [3H]-GR125743, Hela-5-HT1B membranes; read-out: h5-HT1B Ki
Protocol: Serotonin 5-HT1B receptor competition binding experiments were carried out in a polypropylene 96-well plate. In each well was incubated 5 μg of membranes from Hela-5-HT1B cell line prepared in the laboratory (Lot: A001/14-11-2011, protein concentration=3179 μg/ml), 1.5 nM [^3H]-GR125743 ([…], 0.1 mCi/ml, Perkin Elmer NET1172100UC) and compounds studied and standard. Non-specific binding was determined in the presence of GR55562 10 μM (TOCRIS 1054). The reaction mixture (Vt: 250 μl/well) was incubated at 25° C. for 90 min, 200 μL was transfered to GF/C 96-well plate (Millipore, Madrid, Spain) pretreated with 0.5% of PEI and treated with binding buffer (Tris-HCl 50 mM, EDTA 1 mM, MgCl2 10 mM, pH=7.4), after was filtered and washed four times with 250 μl wash buffer (Tris-HCl 50 mM, pH=7.4), before measuring in a microplate beta scintillation counter (Microbeta Trilux, PerkinElmer, Madrid, Spain). […] From the IC50 the Ki is calculated according to the following formula: […]
(§1) Being: • IC50: inhibitory concentration, • D: real concentration of radioligand and • Kd: dissociation constant (affinity of radioligand to the receptor).

human 5-HT2A receptor = human 5-HT2A receptor (Homo sapiens (Human), UniProt P28223); assay: Competition binding in human 5-HT2A receptor; conditions: [3H]-Ketanserin, CHO-5-HT2A membranes; read-out: h5-HT2A Ki
human 5-HT2A receptor, sequence (P28223 whole entry): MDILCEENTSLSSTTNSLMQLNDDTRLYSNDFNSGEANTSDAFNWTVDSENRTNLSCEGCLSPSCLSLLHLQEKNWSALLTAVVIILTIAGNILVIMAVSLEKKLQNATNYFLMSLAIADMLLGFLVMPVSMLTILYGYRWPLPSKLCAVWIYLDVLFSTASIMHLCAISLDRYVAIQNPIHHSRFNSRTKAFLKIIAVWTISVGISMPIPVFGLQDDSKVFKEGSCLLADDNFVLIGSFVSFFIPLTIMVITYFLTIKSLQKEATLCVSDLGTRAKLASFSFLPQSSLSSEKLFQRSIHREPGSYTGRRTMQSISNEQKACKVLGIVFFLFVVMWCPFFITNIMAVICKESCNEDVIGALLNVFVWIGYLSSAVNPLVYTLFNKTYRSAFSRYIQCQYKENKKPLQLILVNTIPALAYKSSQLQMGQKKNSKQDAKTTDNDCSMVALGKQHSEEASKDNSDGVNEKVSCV
Protocol: Serotonin 5-HT2A receptor competition binding experiments were carried out in a polypropilene 96-well plate. In each well was incubated 80 μg of membranes from CHO-5-HT2A cell line prepared in the laboratory (protein concentration=4337 μg/ml), 1 nM [^3H]-Ketanserin (47.3 Ci/mmol, 1 mCi/ml, Perkin Elmer NET791250UC) and compounds studied and standard. Non-specific binding was determined in the presence of Methysergide 1 μM (Sigma M137). The reaction mixture (Vt: 250 μl/well) was incubated at 37° C. for 30 min, 200 μL was transfered to GF/B 96-well plate (Millipore, Madrid, Spain) pretreated with 0.5% of PEI and treated with binding buffer (Tris-HCl 50 mM, pH=7.4), after was filtered and washed six times with 250 μl wash buffer (Tris-HCl 50 mM, pH=6.6), before measuring in a microplate beta scintillation counter (Microbeta Trilux, PerkinElmer, Madrid, Spain).
The raw radioactivity data is adjusted to a logistic regression of 4 parameters using GraphPad Prism software, from the specific junction the value of IC50 is obtained. From the IC50 the Ki is calculated according to the following formula: […]
as §1

HL-60 = assay: Cell viability assay, AML cell line HL-60; format: cell-based; conditions: 48 h treatment, live cells by flow cytometry
Protocol: (§2) 0.15×10^6 AML cell lines (HL-60 or MonoMac-1) per mL were cultured in completed RPMI medium, supplemented with 10% Fetal bovine serum (FBS). Compounds were added to the medium at the concentration indicated (0.1, 1 and 10 μM), while controls were treated with equivalent concentration of vehicle (DMSO). Primary validation screenings were analyzed after 72 h of treatment, EC50 was determined upon 48 h treatments. Cells were stained with the live-dead discrimination dye 7-aminoactinomycin D (7-AAD) and Hoechst 33342 and acquired in a flow cytometer, with a volumetric counting. Live cells were discriminated based on a discrete FSC-SSC profile, 7-AAD negativity and dim positivity to Hoechst 33342. EC50 was calculated with the Prism GraphPad software.

MonoMac-1 = assay: Cell viability assay, AML cell line MonoMac-1; format: cell-based; conditions: 48 h treatment, live cells by flow cytometry
Protocol: as §2

[1] = tested on: peripheral blood-mononuclear blood cells; assay: Healthy blood cells viability assay; format: cell-based; conditions: 48 h treatment, read-out: EC50 (uM), cytotoxic capacity on healthy cells
Protocol: 0.5×10^6 peripheral blood-mononuclear blood cells per mL were cultured in completed RPM medium, supplemented with 10% FBS. Compounds were added to the medium at 0.5/1/5/10/50 μM, while controls were treated with equivalent concentration of vehicle (DMSO). Upon 48 h treatment, cells were stained with the live-dead discrimination dye 7-AAD and Hoechst 33342, the pan-hernatopoietic surface marker CD45, and acquired in a flow cytometer, with a volumetric counting. Live cells were discriminated based on a discrete FSC-SSC profile, 7-AAD negativity, dim positivity to Hoechst 33342 and CD45 positivity. EC50 was calculated with the Prism GraphPad software.

human 5-HT1B receptor, sequence (P28222 whole entry): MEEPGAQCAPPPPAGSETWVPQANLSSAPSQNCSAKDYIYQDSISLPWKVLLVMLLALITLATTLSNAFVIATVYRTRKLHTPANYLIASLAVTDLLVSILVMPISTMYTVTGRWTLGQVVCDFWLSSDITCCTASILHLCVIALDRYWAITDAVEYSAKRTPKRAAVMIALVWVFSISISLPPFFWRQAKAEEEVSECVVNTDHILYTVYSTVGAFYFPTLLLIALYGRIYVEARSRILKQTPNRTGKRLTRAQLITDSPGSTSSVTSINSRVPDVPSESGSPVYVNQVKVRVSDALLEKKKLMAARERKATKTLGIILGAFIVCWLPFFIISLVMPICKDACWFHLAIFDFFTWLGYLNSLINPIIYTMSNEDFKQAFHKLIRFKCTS

COc1ccc(NC(=O)c2ccc(-c3ccc(-c4noc(C)n4)cc3C)cc2)cc1OCCN(C)C [SB41, N-[3-[3-(Dimethylamino)ethoxy]-4-methoxyphenyl]-2′-methyl-4′-(5-methyl-1,2,4-oxadiazol-3-yl)-[1,1′-biphenyl]-4-carboxamide hydrochloride, reference compound]
Ki (human 5-HT1B receptor): 0.6 nM | Ki (human 5-HT2A receptor): 143 nM | EC50 (HL-60): 7.32 µM | EC50 (MonoMac-1): 2480 nM | EC50 [1]: 12.5 µM
